In PMC10010643 (Cancer Chemotherapy and Pharmacology, 2023):

Experiment: Safety and tolerability, Part A single ascending-dose phase in healthy participants
Type: in vivo, human
Experimental: A further two cohorts were recruited. […] Each individual participated in one treatment period only, with the exception of the food-effect cohort (cohort A3) in which there were two treatment periods separated by at least 7 days washout. Participants resided at the Clinical Research Unit (CRU) from 1 day ahead of dosing (day − 1) to day 3 and returned for a follow-up visit 5–7 days after their final dose. For all cohorts, doses were administered in the fasted state in the morning of day 1 of Treatment Period 1. In the food-effect cohort, doses were given 30 min after the start of a high-fat breakfast (973 calories total: approximately 150 protein calories, 250 carbohydrate calories, and 500–600 fat calories) on day 1 of Treatment Period 2. For cohorts A1 to A5 in Treatment Period 1, dosing occurred such that one pair (one active and one placebo) were dosed at least 24 h before the remaining participants. Continuation to dose those who remained was at the investigator’s discretion. Escalating doses were administered following satisfactory sponsor and investigator review of the safety and tolerability data (up to 48 h post-final dose) and PK data (up to 24 h post-final dose) from the lower dose levels.
Safety and tolerability assessments included adverse event (AE) monitoring, physical examinations, laboratory assessments (hematology, clinical chemistry, and urinalysis), vital signs (blood pressure, pulse rate, and body temperature) and ECG.
No formal statistical assessment was performed for the safety analysis.

[1] = Part A 50 mg (1 x 50 mg), fasted
[2] = Part A 50 mg (10 x 5 mg), fasted

## OC[C@H]1O[C@H](Sc2cncc(Br)c2)[C@H](O)[C@@H](n2cc(-c3cc(F)c(F)c(F)c3)nn2)[C@H]1O [GB1211]
Part A
  Effect of food intake or capsule formulation on TEAEs: no effect
  Participants with a TEAE possibly related to treatment, GB1211: 3
  Treatment- or dose-related trend in TEAEs: no apparent treatment- or dose-related trend
Part A 5 mg, fasted
  TEAE Back pain, no. of AEs: 1
  TEAE Back pain, participants: 1 (16.7%) n (%)
  TEAE Constipation, participants: 0 n (%)
  TEAE Cough, participants: 0 n (%)
  TEAE Decreased appetite, participants: 0 n (%)
  TEAE Diarrhea, no. of AEs: 1
  TEAE Diarrhea, participants: 1 (16.7%) n (%)
  TEAE Dry mouth, participants: 0 n (%)
  TEAE Dry skin, participants: 0 n (%)
  TEAE Dyspepsia, participants: 0 n (%)
  TEAE Gastrointestinal disorders, no. of AEs: 1
  TEAE Gastrointestinal disorders, participants: 1 (16.7%) n (%)
  TEAE General disorders and administration site conditions, no. of AEs: 1
  TEAE General disorders and administration site conditions, participants: 1 (16.7%) n (%)
  TEAE Headache, participants: 0 n (%)
  TEAE Infections and infestations, no. of AEs: 1
  TEAE Infections and infestations, participants: 1 (16.7%) n (%)
  TEAE Injury, poisoning and procedural complications, participants: 0 n (%)
  TEAE Medical device site reaction, no. of AEs: 1
  TEAE Medical device site reaction, participants: 1 (16.7%) n (%)
  TEAE Metabolism and nutrition disorders, participants: 0 n (%)
  TEAE Musculoskeletal and connective tissue disorders, no. of AEs: 1
  TEAE Musculoskeletal and connective tissue disorders, participants: 1 (16.7%) n (%)
  TEAE Nasopharyngitis, no. of AEs: 1
  TEAE Nasopharyngitis, participants: 1 (16.7%) n (%)
  TEAE Nervous system disorders, participants: 0 n (%)
  TEAE Pain, participants: 0 n (%)
  TEAE Rash, participants: 0 n (%)
  TEAE Respiratory, thoracic and mediastinal disorders, participants: 0 n (%)
  TEAE Skin and subcutaneous tissue disorders, participants: 0 n (%)
  TEAE Wound, participants: 0 n (%)
Part A 20 mg, fasted
  TEAE Back pain, participants: 0 n (%)
  TEAE Constipation, participants: 0 n (%)
  TEAE Cough, participants: 0 n (%)
  TEAE Decreased appetite, participants: 0 n (%)
  TEAE Diarrhea, participants: 0 n (%)
  TEAE Dry mouth, participants: 0 n (%)
  TEAE Dry skin, participants: 0 n (%)
  TEAE Dyspepsia, participants: 0 n (%)
  TEAE Gastrointestinal disorders, participants: 0 n (%)
  TEAE General disorders and administration site conditions, no. of AEs: 1
  TEAE General disorders and administration site conditions, participants: 1 (16.7%) n (%)
  TEAE Headache, participants: 0 n (%)
  TEAE Infections and infestations, participants: 0 n (%)
  TEAE Injury, poisoning and procedural complications, participants: 0 n (%)
  TEAE Medical device site reaction, participants: 0 n (%)
  TEAE Metabolism and nutrition disorders, participants: 0 n (%)
  TEAE Musculoskeletal and connective tissue disorders, participants: 0 n (%)
  TEAE Nasopharyngitis, participants: 0 n (%)
  TEAE Nervous system disorders, participants: 0 n (%)
  TEAE Pain, no. of AEs: 1
  TEAE Pain, participants: 1 (16.7%) n (%)
  TEAE Rash, participants: 0 n (%)
  TEAE Respiratory, thoracic and mediastinal disorders, participants: 0 n (%)
  TEAE Skin and subcutaneous tissue disorders, participants: 0 n (%)
  TEAE Wound, participants: 0 n (%)
[1]
  TEAE Back pain, participants: 0 n (%)
  TEAE Constipation, participants: 0 n (%)
  TEAE Cough, no. of AEs: 1
  TEAE Cough, participants: 1 (16.7%) n (%)
  TEAE Decreased appetite, participants: 0 n (%)
  TEAE Diarrhea, participants: 0 n (%)
  TEAE Dry mouth, participants: 0 n (%)
  TEAE Dry skin, participants: 0 n (%)
  TEAE Dyspepsia, participants: 0 n (%)
  TEAE Gastrointestinal disorders, participants: 0 n (%)
  TEAE General disorders and administration site conditions, participants: 0 n (%)
  TEAE Headache, participants: 0 n (%)
  TEAE Infections and infestations, participants: 0 n (%)
  TEAE Injury, poisoning and procedural complications, participants: 0 n (%)
  TEAE Medical device site reaction, participants: 0 n (%)
  TEAE Metabolism and nutrition disorders, participants: 0 n (%)
  TEAE Musculoskeletal and connective tissue disorders, participants: 0 n (%)
  TEAE Nasopharyngitis, participants: 0 n (%)
  TEAE Nervous system disorders, participants: 0 n (%)
  TEAE Pain, participants: 0 n (%)
  TEAE Rash, participants: 0 n (%)
  TEAE Respiratory, thoracic and mediastinal disorders, no. of AEs: 1
  TEAE Respiratory, thoracic and mediastinal disorders, participants: 1 (16.7%) n (%)
  TEAE Skin and subcutaneous tissue disorders, participants: 0 n (%)
  TEAE Wound, participants: 0 n (%)
Part A 50 mg (1 x 50 mg), fed
  TEAE Back pain, participants: 0 n (%)
  TEAE Constipation, participants: 0 n (%)
  TEAE Cough, participants: 0 n (%)
  TEAE Decreased appetite, participants: 0 n (%)
  TEAE Diarrhea, participants: 0 n (%)
  TEAE Dry mouth, participants: 0 n (%)
  TEAE Dry skin, no. of AEs: 1
  TEAE Dry skin, participants: 1 (16.7%) n (%)
  TEAE Dyspepsia, participants: 0 n (%)
  TEAE Gastrointestinal disorders, participants: 0 n (%)
  TEAE General disorders and administration site conditions, participants: 0 n (%)
  TEAE Headache, participants: 0 n (%)
  TEAE Infections and infestations, participants: 0 n (%)
  TEAE Injury, poisoning and procedural complications, participants: 0 n (%)
  TEAE Medical device site reaction, participants: 0 n (%)
  TEAE Metabolism and nutrition disorders, participants: 0 n (%)
  TEAE Musculoskeletal and connective tissue disorders, participants: 0 n (%)
  TEAE Nasopharyngitis, participants: 0 n (%)
  TEAE Nervous system disorders, participants: 0 n (%)
  TEAE Pain, participants: 0 n (%)
  TEAE Rash, participants: 0 n (%)
  TEAE Respiratory, thoracic and mediastinal disorders, participants: 0 n (%)
  TEAE Skin and subcutaneous tissue disorders, no. of AEs: 1
  TEAE Skin and subcutaneous tissue disorders, participants: 1 (16.7%) n (%)
  TEAE Wound, participants: 0 n (%)
[2]
  TEAE Back pain, no. of AEs: 1
  TEAE Back pain, participants: 1 (16.7%) n (%)
  TEAE Constipation, participants: 0 n (%)
  TEAE Cough, participants: 0 n (%)
  TEAE Decreased appetite, participants: 0 n (%)
  TEAE Diarrhea, participants: 0 n (%)
  TEAE Dry mouth, participants: 0 n (%)
  TEAE Dry skin, participants: 0 n (%)
  TEAE Dyspepsia, participants: 0 n (%)
  TEAE Gastrointestinal disorders, participants: 0 n (%)
  TEAE General disorders and administration site conditions, participants: 0 n (%)
  TEAE Headache, participants: 0 n (%)
  TEAE Infections and infestations, participants: 0 n (%)
  TEAE Injury, poisoning and procedural complications, participants: 0 n (%)
  TEAE Medical device site reaction, participants: 0 n (%)
  TEAE Metabolism and nutrition disorders, participants: 0 n (%)
  TEAE Musculoskeletal and connective tissue disorders, no. of AEs: 1
  TEAE Musculoskeletal and connective tissue disorders, participants: 1 (16.7%) n (%)
  TEAE Nasopharyngitis, participants: 0 n (%)
  TEAE Nervous system disorders, participants: 0 n (%)
  TEAE Pain, participants: 0 n (%)
  TEAE Rash, participants: 0 n (%)
  TEAE Respiratory, thoracic and mediastinal disorders, participants: 0 n (%)
  TEAE Skin and subcutaneous tissue disorders, participants: 0 n (%)
  TEAE Wound, participants: 0 n (%)
Part A 100 mg, fasted
  TEAE Back pain, participants: 0 n (%)
  TEAE Constipation, participants: 0 n (%)
  TEAE Cough, participants: 0 n (%)
  TEAE Decreased appetite, participants: 0 n (%)
  TEAE Diarrhea, participants: 0 n (%)
  TEAE Dry mouth, participants: 0 n (%)
  TEAE Dry skin, participants: 0 n (%)
  TEAE Dyspepsia, no. of AEs: 1
  TEAE Dyspepsia, participants: 1 (16.7%) n (%)
  TEAE Gastrointestinal disorders, no. of AEs: 1
  TEAE Gastrointestinal disorders, participants: 1 (16.7%) n (%)
  TEAE General disorders and administration site conditions, participants: 0 n (%)
  TEAE Headache, participants: 0 n (%)
  TEAE Infections and infestations, no. of AEs: 1
  TEAE Infections and infestations, participants: 1 (16.7%) n (%)
  TEAE Injury, poisoning and procedural complications, participants: 0 n (%)
  TEAE Medical device site reaction, participants: 0 n (%)
  TEAE Metabolism and nutrition disorders, participants: 0 n (%)
  TEAE Musculoskeletal and connective tissue disorders, participants: 0 n (%)
  TEAE Nasopharyngitis, no. of AEs: 1
  TEAE Nasopharyngitis, participants: 1 (16.7%) n (%)
  TEAE Nervous system disorders, participants: 0 n (%)
